Each block holds one molecule with its values, some of them ahead of it.
Columns and labels:
[1] = Retention time of the compound by HPLC method; format: physicochemical
hERG (KCNH2) = hERG (KCNH2) (Homo sapiens, UniProt Q12809); assay: Inhibition of human ERG expressed in Xenopus laevis oocytes at 100 uM incubated for 3 mins at holding potential of -100 mV followed by depolarization to +20 mV and repolarization to -50 mV by two-microelectrode voltage clamp assay; format: cell-based; conditions: Xenopus laevis oocytes expressing human ERG
hERG (KCNH2), sequence (Q12809 whole entry): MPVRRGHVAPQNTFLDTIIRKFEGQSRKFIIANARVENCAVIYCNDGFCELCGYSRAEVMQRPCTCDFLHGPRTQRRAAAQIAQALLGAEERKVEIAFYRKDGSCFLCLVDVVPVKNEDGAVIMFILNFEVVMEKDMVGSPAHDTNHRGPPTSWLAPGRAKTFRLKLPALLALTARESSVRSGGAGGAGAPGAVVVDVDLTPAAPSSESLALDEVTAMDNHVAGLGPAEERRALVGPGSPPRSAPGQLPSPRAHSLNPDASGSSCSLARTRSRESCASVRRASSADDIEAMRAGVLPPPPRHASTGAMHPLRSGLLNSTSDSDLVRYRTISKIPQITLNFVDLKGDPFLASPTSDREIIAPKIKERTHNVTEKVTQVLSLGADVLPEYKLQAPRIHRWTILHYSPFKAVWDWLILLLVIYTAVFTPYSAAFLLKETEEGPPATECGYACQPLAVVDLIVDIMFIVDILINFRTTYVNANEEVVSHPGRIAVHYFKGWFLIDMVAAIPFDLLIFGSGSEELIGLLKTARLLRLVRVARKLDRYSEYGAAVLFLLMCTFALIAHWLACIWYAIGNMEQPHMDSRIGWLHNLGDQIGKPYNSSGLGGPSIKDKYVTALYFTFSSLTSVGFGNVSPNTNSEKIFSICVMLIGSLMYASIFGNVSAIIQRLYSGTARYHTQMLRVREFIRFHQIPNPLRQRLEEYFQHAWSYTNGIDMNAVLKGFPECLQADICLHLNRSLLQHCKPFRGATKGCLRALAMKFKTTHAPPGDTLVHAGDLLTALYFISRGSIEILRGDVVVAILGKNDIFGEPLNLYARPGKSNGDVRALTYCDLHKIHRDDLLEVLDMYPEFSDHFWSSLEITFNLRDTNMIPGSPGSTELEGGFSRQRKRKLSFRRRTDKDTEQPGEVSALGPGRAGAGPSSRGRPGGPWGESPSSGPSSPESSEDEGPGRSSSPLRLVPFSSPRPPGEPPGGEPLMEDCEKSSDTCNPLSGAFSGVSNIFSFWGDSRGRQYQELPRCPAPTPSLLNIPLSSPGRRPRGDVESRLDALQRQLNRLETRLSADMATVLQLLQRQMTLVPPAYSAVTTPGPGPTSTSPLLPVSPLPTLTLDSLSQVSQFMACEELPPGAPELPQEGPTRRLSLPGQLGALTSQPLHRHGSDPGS

Retention_time [1]: 18.9 min
Compound: C=C(C)[C@@]12C[C@@H](C)[C@@]34OC(/C=C\C=C/CCCCC)(O[C@@H]1[C@@H]3[C@@H]1O[C@]1(CO)[C@@H](O)[C@]1(O)C(=O)C(C)=C[C@H]14)O2
inhibition at 0.05 h, 100 µM (hERG (KCNH2)): 55.4%

Compound: C=C(C)[C@]12OC3(/C=C\C=C/CCCCC)O[C@@H]1[C@@H]1[C@@H]4O[C@]4(CO)[C@@H](O)[C@]4(O)C(=O)C(C)=C[C@H]4[C@@]1(O3)[C@H](C)[C@H]2OC(=O)c1ccccc1
Retention_time [1]: 23.5 min
inhibition at 0.05 h, 100 µM (hERG (KCNH2)): 42.5%

Compound: C=C(C)[C@]12OC3(/C=C/C=C/CCCCC)O[C@@H]1[C@@H]1[C@@H]4O[C@]4(CO)[C@@H](O)[C@]4(O)C(=O)C(C)=C[C@H]4[C@@]1(O3)[C@H](C)[C@H]2OC(=O)c1ccccc1
Retention_time [1]: 25.5 min
inhibition at 0.05 h, 100 µM (hERG (KCNH2)): 51.3%

Reference: ChEMBL document CHEMBL3588755, “hERG Channel Inhibitory Daphnane Diterpenoid Orthoesters and Polycephalones A and B with Unprecedented Skeletons from Gnidia polycephala” (J Nat Prod, 2015)
